One may read the MIC as the smallest concentration in the dilution series that meets the test's criterion for growth inhibition. Lower therefore signals greater potency.

Ends that are not written are not given here.

One data set has as its system R. mucilaginosa.
Assay: not given
The data set is classed as cell-based, Rhodotorula mucilaginosa. The following applies: 48 h. Here is the method:
(§1) The peptide synthesis was performed by Laboratoire Innodal (Lévis, QC, Canada). Fourteen peptides were synthesized by standard solid-phase peptide synthesis (SPPS) on an automated peptide synthesizer. Solubility of peptides was first tested on saline water with 0.85% NaCl. […] Each peptide was solubilized in a small volume of dimethylsulfoxide (DMSO), and water was subsequently added until a 10% (v/v) DMSO concentration was reached. The stock solution of each peptide was at a concentration of 2.5 mM. The pH of the final solution was below the isoelectric point of each peptide. […] Antifungal assays on synthesized peptides were realized using methods described below.
(§2) The antibacterial activity was tested against two indicator bacteria including Escherichia coli and Listeria ivanovii (Table 1). These two strains are Gram-negative and Gram-positive, respectively and are commonly sensitive strains. They were subcultured in Tryptic Soy Broth (TSB) two times for 18 h, at 37 °C for E. coli and 30 °C for L. ivanovii. The antifungal activity was evaluated against four filamentous molds and four yeasts (Table 1). All the strains for antifungal assays were chosen since they are the most often strains identified as spoilage microorganisms of food products, specifically in the meat industry. The 4 filamentous molds were subcultured on Potato Dextrose Agar (PDA) at 25 °C, for 7 days, 2 times. The 4 yeasts were subcultured in Potato Dextrose Broth (PDB) at 25 °C, for 48 h, 2 to 3 times (Table 1).
(§3) The minimum inhibitory concentration (MIC) of the hydrolysate that induces inhibition of the microorganism tested was determined according to Froidevaux et al.. To quantify the growth inhibition, 96-well microplate assays were performed using Mueller-Hinton broth (MH, BD-Difco, Sparks, MD, USA). Samples were micro-diluted from the stock concentration of 40 mg/mL of proteins. The inoculum was pre-diluted in MH at a concentration of 5 × 10^5 CFU/mL. Then, the microplate was incubated 24 h at 37 °C for E. coli and at 30 °C for L. ivanovii. The molds and yeasts strains were, respectively tested at 2 × 10^4 and 1 × 10^5 conidia or yeast per mL [32]. The automated cell counter was used to determine the concentration. The microplates were incubated for 48 h at 25 °C for the molds and R. mucilaginosa, and at 35 °C for the other yeast strains. The MIC was the lowest concentration that inhibited completely the microorganism growth. The growth was measured by absorbance at 595 nm (Infinite® F200 PRO, Tecan Inc., Durham, NC, USA).
(§4) Then, they were, respectively incubated for 24 h at 37 °C or 30 °C and 48 h at 25 °C. The lowest concentration that inhibited microorganism growth is the MBC or MFC.
Substance HVDPENFRLLGNVIVVVL showed an MFC of 0.3 ± 0.1 mM and an MIC of 0.10 ± 0.05 mM. Consider NALAHKYH, for which the MFC stood at 0.3 ± 0.0 mM and the MIC came to 0.3 ± 0.0 mM. FRLLGNVIVVV: the MFC is recorded as 0.3 ± 0.0 mM and the MIC is recorded as 0.156 mM.

On to GHLDDLPGALSALSDLHAHKL, for which the MFC came out at 0.6 ± 0.0 mM and the MIC amounted to 0.6 ± 0.0 mM.

For LAHKYH [LAHKYH], the MFC was found to be 1.3 ± 0.0 mM and the minimal inhibitory concentration (MIC) stood at 1.25 mM.

The data set is the same for the next values; noted with them: synthesized peptides, stock 2.5 mM in 10% (v/v) DMSO, highest tested concentration 1.25 mM, 48 h at 25 °C, mean ± SD.
As for HVDPEN, the MIC entry was “not active”.

The next data set relates to Paecilomyces spp.
Assay: not given
It is filed as cell-based. The following applies: 48 h. The protocol: as §1, §2, §3, §4
On to HVDPENFRLLGNVIVVVL, for which the MIC is more than 1.3 ± 0.0 mM. NALAHKYH returned an MFC of 0.3 ± 0.0 mM and an MIC of 0.2 ± 0.0 mM.

Consider FRLLGNVIVVV, for which the MFC amounted to 0.6 ± 0.0 mM and the MIC turned out to be 0.625 mM. On to GHLDDLPGALSALSDLHAHKL, for which the MFC was found to be 1.7 ± 0.7 mM and the MIC was found to be 1.3 ± 0.0 mM. In turn, LAHKYH [LAHKYH] displayed an MFC of 1.3 ± 0.0 mM and an MIC of 1.25 mM.

The data set is the same for the next values; noted with them: synthesized peptides, stock 2.5 mM in 10% (v/v) DMSO, highest tested concentration 1.25 mM, 48 h at 25 °C, mean ± SD.
For HVDPEN, the MIC entry is given as “not active”.

Test system in a further data set: not listed separately
The data set is described as follows: RP-UPLC-MS/MS peptide profile, retention time. It is filed as physicochemical. The following applies: Poroshell 120 EC-C18, water/acetonitrile with 0.1% formic acid, B 1–13% in 6 min, 35% at 25 min, 100% at 35 min, 23 °C, 500 µL/min, early elution read as high polarity, late as higher hydrophobicity. The source says: RP-UPLC coupled with MS/MS Q-TOF system was used to separate, identify, and characterize the peptide population, present in the porcine cruor hydrolysates. RP-UPLC tests were operated using a 1290 Infinity II UPLC (Agilent Technologies, Santa Clara, CA, USA), following the method proposed by. This chromatography instrument was composed of a binary pump (G7120A), a multisampler (G7167B), an in-line degasser and a variable wavelength detector (VWD G7114B) adjusted to 214 nm. […] Then, solvent B ramped to 100% until 35 min and was maintained for 10 min before returning to initial conditions. The cruor hydrolysate samples (2% protein (w/v)) were filtered through 0.22 µm PVDF filter and a volume of 0.25 µL was loaded onto a Poroshell 120 EC-C18 column (2.1 × 100 mm i.d., 2.7 micron, Agilent, Santa Clara, CA, USA) at a flow rate of 500 µL/min.
The determination of the accurate mass was performed using a hybrid ion mobility quadrupole time of flight mass spectrometer (6560 high-definition mass spectrometry (IM-Q-TOF), Agilent, Santa Clara, CA, USA). Calibration was completed using an ESI-L low concentration tuning mix (G1969-85000, Agilent Technologies, Santa Clara, CA, USA). Nitrogen was selected as the drying (13.0 L/min, 150 °C) and nebulizer gas (30 psi). The voltages were set at 3500 V for the capillary, 300 V for the nozzle and 400 V for the fragmentor. Positive mode at Extended Dynamic Range, 2 Ghz, 3200 m/z was used to record signals. Data acquisition and analysis were performed using the Agilent Mass Hunter Software package (LC/MS Data Acquisition, Version B.08.00 and Qualitative Analysis for IM-MS, Version B.07.00 Service Pack 2 with BioConfirm Software and BioConfirm, Version 10.0). A false discovery rate of 1% was used for extraction of biomolecules. […] Finally, these peptides were compared with bioactive peptides already known in the literature or analyzed with a predictive antimicrobial database.
Consider “STVLTSKYR [porcine hemoglobin fragment α 133–141]”, for which the “Retention Time” value came to 6.67 min. Still for that read-out and setting: the figure for “DPENFRLLGNVIVVVLA [porcine hemoglobin fragment β 100–116]” is 11.10 min; for “LANVSTVLTSKYR [porcine hemoglobin fragment α 129–141]” it is 10.36 min; for “SNADAVMGNPKVKAH [porcine hemoglobin fragment β 50–64]” it is 9.91 min. With “FESF [porcine hemoglobin fragment β 43–46]”, the “Retention Time” value came out at 9.60 min.

Regarding “HVDPENFRLLGNVIVVVLARRLGHDFNPNVQA [porcine hemoglobin fragment β 98–129, synthesized]”, the “Retention Time” value is reported as 23.33 min. With “TVLTSKYR [porcine hemoglobin fragment α 134–141]”, the “Retention Time” value is 6.54 min. On to “HVDPENFRLLGNVIV [porcine hemoglobin fragment β 98–112]”, for which the “Retention Time” value was determined as 17.16 min. For “CLLVTLAAHHPDDFNPS [porcine hemoglobin fragment α 104–120]”, the “Retention Time” value is recorded as 12.90 min. Take “FLGFPTTKTYFPHF [porcine hemoglobin fragment α 33–46]”: the “Retention Time” value is given as 19.13 min.

“ERMFLGF [porcine hemoglobin fragment α 30–36]”: the “Retention Time” value amounted to 16.27 min. Turning to “VLTSKYR [porcine hemoglobin fragment α 135–141]”, the “Retention Time” value was found to be 5.97 min. Turning to “LSDLHAHKLRVDPVNF [porcine hemoglobin fragment α 83–98]”, the “Retention Time” value was 10.23 min.

Regarding “VLSAADKANVKAAWGKVGGQAGAHGAEALERM [porcine hemoglobin fragment α 1–32]”, the “Retention Time” value worked out at 12.14 min. Same read-out and setting: the figure for “ANVSTVLTSKYR [porcine hemoglobin fragment α 130–141]” is 8.45 min; for “VLSAADKANVKAAWGKVGGQAGAHGAEAL [porcine hemoglobin fragment α 1–29]” it is 10.86 min; for “PTTKTYFPHF [porcine hemoglobin fragment α 37–46]” it is 12.01 min. Turning to “DQLHVDPENFRLLGNVIVVVLARRLGHDFNPNVQ [porcine hemoglobin fragment β 95–128]”, the “Retention Time” value is 24.79 min. Consider “LERMFLGF [porcine hemoglobin fragment α 29–36]”, for which the “Retention Time” value was 17.60 min. For the substance “PNVQAAFQKVVAGVANALA [porcine hemoglobin fragment β 125–143]”, the “Retention Time” value is given as 11.10 min.

Turning to “KLLSHCL [porcine hemoglobin fragment α 99–105]”, the “Retention Time” value stood at 8.01 min.

With “KLLSHCLL [porcine hemoglobin fragment α 99–106]”, the “Retention Time” value was 10.93 min. “GLWGKVNVDEVGGEALGRL [porcine hemoglobin fragment β 14–32]”: the “Retention Time” value came to 16.84 min. Consider “VLSAADKANVKAAWGKVGGQAGAHGAEA [porcine hemoglobin fragment α 1–28]”, for which the “Retention Time” value amounted to 9.15 min. Turning to “FESFGDLSNAD [porcine hemoglobin fragment β 43–53]”, the “Retention Time” value is 12.20 min. Same read-out and setting: as for “SDLHAHKLRVDPVNF [porcine hemoglobin fragment α 84–98]”, the figure is 9.34 min; as for “NLSHGSDQVKAHGQKVADALTKAVGHLDDLPGAL [porcine hemoglobin fragment α 47–80]”, 15.89 min. On to “GAEALERMFLGFPT [porcine hemoglobin fragment α 25–38]”, for which the “Retention Time” value is 9.91 min.

As to “RMFLGFPTTKTYFPHF [porcine hemoglobin fragment α 31–46]”, the “Retention Time” value is reported as 17.99 min. Same read-out and setting: the figure for “FRLLGNVIVVVLARRLGHDFNPNVQ [porcine hemoglobin fragment β 104–128]” is 21.87 min; for “SFGDLSNADAVMGNPKVK [porcine hemoglobin fragment β 45–62]” it is 12.90 min. Regarding “SFSDGLKHLDNLKGTFA [porcine hemoglobin fragment β 71–87]”, the “Retention Time” value turned out to be 12.90 min.

In the case of “HVDPENFRLLGNVIVVVLARRLGHDFNPNVQ [porcine hemoglobin fragment β 98–128, synthesized]”, the “Retention Time” value came to 23.26 min. Still for that read-out and setting: as for “LVVYPWTQRF [porcine hemoglobin fragment β 33–42]”, the figure is 16.65 min; as for “VTLAAHHPDDFNPSVHASLDKF [porcine hemoglobin fragment α 107–128]”, 11.37 min; as for “LGFPTTKTYFPHF [porcine hemoglobin fragment α 34–46]”, 16.46 min.

Take “AAFQKVVAGVANA [porcine hemoglobin fragment β 129–141]”: the “Retention Time” value was found to be 10.86 min.

Take “LLVVYPWTQRF [porcine hemoglobin fragment β 32–42]”: the “Retention Time” value turned out to be 19.00 min. For the substance “TSKYR [known antimicrobial peptide, porcine hemoglobin fragment α 137–141]”, the “Retention Time” value is given as 1.64 min. As to “ERMFLGFPTTKTYFPHF [porcine hemoglobin fragment α 30–46]”, the “Retention Time” value is 18.24 min. Consider “KLLSHCLLVTLAAHHPD [porcine hemoglobin fragment α 99–115]”, for which the “Retention Time” value stood at 11.10 min.

The values are drawn from PMC9778238, “How Discoloration of Porcine Cruor Hydrolysate Allowed the Identification of New Antifungal Peptides” (Foods, 2022).
